# Data taken from ChEMBL document CHEMBL5727310, “Substituted morpholine derivatives having activity against pain” (2019).
# Molecular target: Sigma non-opioid intracellular receptor 1 (Homo sapiens, UniProt Q99720)
# Test: Receptor Radioligand Assay: To investigate binding properties of test compounds to human σ1 receptor, transfected HEK-293 membranes and [3H](+)-pentazocine (Perkin Elmer, NET-1056), as the radioligand, were used. The assay was carried out with 7 μg of membrane suspension, 5 nM of [3H](+)-pentazocine in either absence or presence of either buffer or 10 μM Haloperidol for total and non-specific binding, respectively. Binding buffer contained Tris-HCl 50 mM at pH 8. Plates were incubated at 37° C. for 120 minutes. After the incubation period, the reaction mix was then transferred to MultiScreen HTS, FC plates (Millipore), filtered and plates were washed 3 times with ice-cold 10 mM Tris-HCL (pH7.4). Filters were dried and counted at approximately 40% efficiency in a MicroBeta scintillation counter (Perkin-Elmer) using EcoScint liquid scintillation cocktail
# Chain of Sigma non-opioid intracellular receptor 1 (Q99720 whole entry): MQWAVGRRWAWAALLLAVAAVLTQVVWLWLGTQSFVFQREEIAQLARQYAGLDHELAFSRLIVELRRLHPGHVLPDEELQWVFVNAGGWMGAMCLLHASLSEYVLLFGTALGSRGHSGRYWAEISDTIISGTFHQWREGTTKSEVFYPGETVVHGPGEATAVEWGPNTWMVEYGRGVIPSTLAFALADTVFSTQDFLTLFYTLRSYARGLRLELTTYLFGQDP
smiles,measurement,value
CCN1CC(C2CCN(CCC(C)C)CC2)OC2(CC2)C1 (stereo unspecified),Ki,< 0.5 µM
